The assay deals with mixture of E. coli and P. aeruginosa. In words: Disinfection of contaminated surgical instruments and objects. As to conditions: immersion 30 minutes; instruments contaminated with 7.0×10^9 bacteria. The format is cell-based, E. coli (ATCC 11229) and P. aeruginosa (ATCC 15442). The method, then:
Cultures: E. coli (ATCC11229) and P. aeruginosa (ATCC15442) from the American Type Culture Collection (ATCC) were grown in Tryptic Soy Broth (TSB) according to the instructions provided by ATCC.
Sterile surgical instruments (probes, scalpel handles, and forceps) and other objects were inoculated with 20 μL of the concentrated culture and allowed to dry for 30 minutes in a laminar flow hood. Contaminated surgical instruments were treated with SAFI (various copper or copper/zinc mixes at pH 3.2 or pH 0.2) by immersing the objects in 40 mL sterile water containing 1, 10, or 100 ppm SAFI for time periods of 30 minutes −22 hours. Comparison treatments included no treatment (control), boiling the instruments in water for 30 minutes, immersing the instruments in 40 mL of 70% EtOH for 30 minutes, or autoclaving the instruments at 15 lbs/in^2 at 121° C. for 20 minutes. […]
The ability of a solution of SAFI to disinfect contaminated surgical instruments was determined by contaminating forceps, scalpel handles, and probes with 20 uL of a concentrated mixture of E. coli and P. aeruginosa and incubating the contaminated instruments in a SAFI solution for 30 minutes. […] Bacteria present after overnight incubation were determined by standard plate counts. […]

Structures are written as SMILES.

As for `CCO` [70% ethanol, ethanol], the “effectiveness in killing bacteria (comparison treatment)” value was “effective in killing bacteria”.

The values are drawn from patent US20160150792A1, “WATER PURIFICATION COMPOSITIONS AND APPLICATIONS FOR SAME” (priority 2011, published 2016).
